Polymyxin IC50 shift difference (WT - phoP-), IC50 shift and IC50 data for 6 compounds are collected here from PubChem BioAssay AID2612 (Southern Research Specialized Biocontainment Screening …, 2010).

The source made the active and inactive calls. The rule behind the calls is not given here.

Test [1] can be described thus: compound effect on polymyxin resistance, Typhi, OD600 (AID 2612). The note with it: Salmonella Typhi WT vs phoP-, polymyxin IC50 shift, OD600 24 h, at 150 µM; for polymyxin IC50 shift difference (WT - phoP-): stronger effect = higher value; for IC50 shift: measured here: polymyxin IC50 shift.
The subject of test [2] is Salmonella Typhi WT vs phoP-, polymyxin IC50 shift, OD600 24 h. The description is as above.

With `CCn1cc(C(=O)O)c(=O)c2cc(F)c(N3CCN(C(=S)NC(=O)c4ccccc4Cl)CC3)cc21`, the polymyxin IC50 shift difference (WT - phoP-) in test [1] was -3.77 (inactive). Moreover, the results for the IC50 shift in test [1] (WT strain) and in test [1] (phoP- strain) were -1.35 and 2.42, respectively. Besides, the concentration for half-maximal inhibition (IC50) in test [2] (WT polymyxin IC50 at 150 uM) was 3.45 µM; in test [2] (phoP- polymyxin IC50 at 150 uM) it was 0.0339 µM.
Turning to `O=C1C2=C(Nc3ccccc3SC2c2ccco2)c2ccccc21` (centres undefined), the IC50 shift in test [1] (WT strain) was 1.28; in test [1] (phoP- strain), -24.4. The half-maximal inhibitory concentration (IC50) was 4 µM in test [2], 1.47 µM in test [2] (WT polymyxin IC50 at 150 uM) and 27.4 µM in test [2] (phoP- polymyxin IC50 at 150 uM).
For `Cc1ccc(Nc2cc(C)c3c(O)cccc3n2)cc1C`, in test [1], the polymyxin IC50 shift difference (WT - phoP-) was 0.62 (inactive). Further, the IC50 shift in test [1] (WT strain) worked out at 2.64; in test [1] (phoP- strain), 2.02. In test [2] (phoP- polymyxin IC50 at 150 uM), the IC50 came to 0.893 µM.
On to `COc1c(N2CCN(C(=S)NCc3ccccc3)C(C)C2)c(F)cc2c(=O)c(C(=O)O)cn(C3CC3)c12` (centres undefined), for which, in test [1], the polymyxin IC50 shift difference (WT - phoP-) was -3.42 (inactive). Further, the IC50 shift was -4.5 in test [1] (WT strain) and -1.08 in test [1] (phoP- strain). Moreover, the IC50 in test [2] (WT polymyxin IC50 at 150 uM) came out at 7.25 µM; in test [2] (phoP- polymyxin IC50 at 150 uM) it was 3.83 µM.
For the compound `O=C(Nc1ccc(Cl)cc1)N1CCCN(Cc2ccccc2F)C1`, the polymyxin IC50 shift difference (WT - phoP-) in test [1] is -11.9 (inactive). Besides, the IC50 shift was -12.1 in test [1] (WT strain) and -0.267 in test [1] (phoP- strain). Further, the IC50 in test [2] (WT polymyxin IC50 at 150 uM) amounted to 14.9 µM; in test [2] (phoP- polymyxin IC50 at 150 uM), 3.07 µM.
For the compound `S=C(NCc1ccc(Cl)cc1)Nc1ccncc1`, the IC50 shift in test [1] (WT strain) is -0.561; in test [1] (phoP- strain), -25.9. The 50% inhibitory concentration (IC50) was 20 µM in test [2], 0.669 µM in test [2] (WT polymyxin IC50 at 150 uM) and 28.8 µM in test [2] (phoP- polymyxin IC50 at 150 uM).
